According to ChEMBL document CHEMBL3808288, “Identification and in Vivo Evaluation of Liver X Receptor β-Selective Agonists for the Potential Treatment of Alzheimer's Disease” (J Med Chem, 2016):

What was measured:
[1] = biological target: T1, Oxysterols receptor LXR-beta (Homo sapiens, UniProt P55055); test: (§1) Agonist activity at LXRbeta (unknown origin) expressed in human H4 cells co-expressing ABCA1 promoter measured after 48 hrs by cell-based transactivation assay
T1 sequence (P55055 whole entry): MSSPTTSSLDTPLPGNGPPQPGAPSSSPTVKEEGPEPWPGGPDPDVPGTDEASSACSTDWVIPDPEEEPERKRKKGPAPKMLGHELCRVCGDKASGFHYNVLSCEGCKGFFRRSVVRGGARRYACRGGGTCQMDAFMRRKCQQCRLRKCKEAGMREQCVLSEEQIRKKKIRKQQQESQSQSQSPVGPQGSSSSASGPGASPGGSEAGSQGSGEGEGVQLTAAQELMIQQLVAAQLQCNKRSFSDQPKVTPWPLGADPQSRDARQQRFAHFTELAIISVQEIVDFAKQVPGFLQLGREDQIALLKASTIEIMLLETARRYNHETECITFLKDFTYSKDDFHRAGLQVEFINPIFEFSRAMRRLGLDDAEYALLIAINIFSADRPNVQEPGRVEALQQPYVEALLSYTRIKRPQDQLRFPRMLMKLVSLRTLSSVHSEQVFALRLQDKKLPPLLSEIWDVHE

[2] = biological target: T2, Oxysterols receptor LXR-beta (Homo sapiens) (UniProt P55055); test: as §1
T2 sequence (whole entry): T1 sequence (P55055 whole entry)

[3] = biological target: T3, Oxysterols receptor LXR-alpha (Homo sapiens, UniProt Q13133); test: (§2) Agonist activity at LXRalpha (unknown origin) expressed in human HepG2 cells co-expressing ABCA1 promoter measured after 48 hrs by cell-based transactivation assay
T3 sequence (Q13133 whole entry): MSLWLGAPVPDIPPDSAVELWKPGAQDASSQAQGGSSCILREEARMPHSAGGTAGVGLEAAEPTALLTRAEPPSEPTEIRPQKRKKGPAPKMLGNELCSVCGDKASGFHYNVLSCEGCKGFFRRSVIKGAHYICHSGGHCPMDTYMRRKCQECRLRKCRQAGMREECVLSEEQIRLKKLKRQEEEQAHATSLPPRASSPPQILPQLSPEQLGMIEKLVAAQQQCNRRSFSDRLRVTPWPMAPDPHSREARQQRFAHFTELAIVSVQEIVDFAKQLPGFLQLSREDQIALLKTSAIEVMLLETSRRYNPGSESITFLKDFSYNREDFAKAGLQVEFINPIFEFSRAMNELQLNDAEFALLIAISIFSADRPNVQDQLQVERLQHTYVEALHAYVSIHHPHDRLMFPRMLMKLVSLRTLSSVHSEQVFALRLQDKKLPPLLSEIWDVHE

[4] = biological target: T4, Oxysterols receptor LXR-alpha (Homo sapiens) (UniProt Q13133); test: as §2
T4 sequence (whole entry): T3 sequence (Q13133 whole entry)

EC50 [1]: 0.84 µM
Emax [2]: 117%
EC50 [3]: 2 µM
Emax [4]: 31%
Structure (SMILES): CC(C)[C@](O)(C(=O)N1CCC(C2CCN(c3ccc(C(=O)N(C)C)c(Cl)c3)CC2)CC1)C(F)(F)F
